We go through 16 substances from patent US11466273B2, “Monocarboxylate transporter 4 (MCT4) antisense oligonucleotide (ASO) inhibitors for use as therapeutics in the treatment of cancer” (THE UNIVERSITY OF BRITISH COLUMBIA, priority 2015, dated 2022).

Strand notation (5' to 3'): a small letter for the sugar, then the base; units joined by * are phosphorothioate-linked, units joined directly phosphodiester-linked; [ ] holds rarer units or linkages, { } end groups; capitals alone tell only the bases. d = 2'-deoxy (DNA)

For the series, the system named is MCT4. The series is described as follows: Percent inhibition of MCT4 by MCT4 ASOs (knock-down after transfection, qPCR/Western blot). The format is cell-based, human. How it is done:
First-generation phosphorothioate-modified ASOs against human MCT4 were rationally designed by selecting sequences containing favourable motifs while excluding unfavourable ones (Matveeva et al., 2000). Specificity of MCT4-targeting sequences, compared to human and mouse genes (at least 3 of 20 bases mismatched), was evaluated using BLAST. Ten sequences SEQ ID No: 1, 4, 5, 9, 11, 30, 36, 37, 40 and 41 (see TABLE A) distributed throughout the length of the transcript with perfect complementarity to all human MCT4 transcript variants (NM_001042422.2, NM_001042423.2, NM_001206950.1, NM_001206951.1, NM_001206952.1, and NM_004207.3) were selected and synthesized by Eurofins MWG Operon. The knock-down efficiencies of these ten ASOs were tested by determining target mRNA and protein expression 48 hours after transfection of cells using qPCR and Western blotting. Two candidate ASOs (#1 and #14—SEQ ID NOs: 1 and 5, respectively) were selected for further studies. Sequences: ASO #1 (SEQ ID NO: 1), 5′-[…]-3′; ASO #14 (SEQ ID NO: 5), 5′-[…]-3′; a published non-targeting control ASO, 5′-[…]-3′ (Mullick et al., 2011; Samuel et al., 2006).
Cells were transfected in 6-well plates with ASOs at 100 nM for 48 hours (unless otherwise indicated) using Oligofectamine™ (Invitrogen™, Carlsbad, Calif.) or with MCT4-targeting siRNAs and controls (Dharmacon™, Chicago, Ill.) at 50 nM for 48 hours using Lipofectamine™ 2000 (Invitrogen™), following the manufacturer's instructions.
Total RNA was isolated using the RNeasy Mini Kit™ (Qiagen Inc.™, Hilden, Germany) and cDNA synthesized using the QuantiTect Reverse Transcription Kit™ (Qiagen™). Primers were designed using Primer-BLAST™. qRT-PCR reactions using KAPA SYBR Fast Universal™ (Kapa Biosystems™, Woburn, Mass.) were performed in triplicate in a ViiA 7 Real-Time PCR™ system (Applied Biosystems™, Foster City, Calif.). Target genes were normalized to a geometric average of 3 internal reference genes (Vandesompele et al., 2002).
Cells were harvested and lysed in RIPA buffer (50 mM Tris-Cl pH 7.4, 150 mM NaCl, 1% Igepal, 0.5% Na-deoxycholate, 0.1% SDS) supplemented with a complete protease inhibitor cocktail (Roche, Nutley, N.J.). The protein concentration of the lysate was determined by Pierce BCA Protein Assay™ (Thermo Scientific™, Waltham, Mass.). The lysate was run on 8% SDS polyacrylamide gel (20 ug of protein per lane) and proteins were transferred onto PVDF membrane (Millipore™, Billerica, Mass.). The blot was blocked with the Odyssey™ blocking buffer (Li-cor Biosciences™) and probed with anti-MCT4 antibody. Vinculin was used as a loading control. Following overnight incubation at 4° C., the primary antibody was probed with the corresponding secondary antibody and detected using the Odyssey Infrared Imaging System™ (Li-cor Biosciences™) and Image Studio Version 3.1™ (Li-cor Biosciences™). Densitometry analysis was done using ImageJ (U.S. National Institutes of Health, Bethesda, Md.).
On the technique in general: Real-time PCR tracks product formation cycle by cycle.

The mark [1] stands for this setting: Table A, ASOs transfected at 100 nM for 48 hours unless otherwise indicated.

For “20 (dA*dG*dG*dA*dA*dG*dA*dC*dA*dG*dG*dG*dC*dT*dA*dC*dC*dT*dG*dC; antisense; listed as Homo sapiens) [compound 20]”, the “% MCT4 Inhibition” value under setting [1] was determined as 66.26%.

In the case of “34 (dA*dG*dT*dC*dC*dA*dC*dC*dC*dC*dC*dG*dA*dG*dT*dC*dT*dG*dC*dA; antisense; listed as Homo sapiens) [compound 34]”, the “% MCT4 Inhibition” value under setting [1] is 20.5%.

For the substance “30 (dG*dA*dA*dT*dG*dA*dC*dA*dC*dG*dG*dT*dT*dC*dC*dC*dA*dC*dC*dC; antisense; listed as Homo sapiens) [compound 30]”, under setting [1], the “% MCT4 Inhibition” value is 25.51%.

Turning to “48 (dC*dC*dA*dT*dG*dG*dC*dC*dA*dG*dG*dA*dG*dG*dG*dT; antisense; listed as Homo sapiens) [compound 48]”, the “% MCT4 Inhibition” value runs as follows: under setting [1], 77.65%; (Table B, SEQ ID NO 1 and 16 mer truncations) 77.65%.

Take “45 (dC*dA*dC*dA*dG*dC*dT*dC*dC*dT*dC*dC*dC*dA*dT*dG*dG*dC*dC*dA*dG*dG; listed as Rattus norvegicus) [compound 45]”: under setting [1], the “% MCT4 Inhibition” value came to 22.4%.

For “12 (TAGCGGTTCAGCATGATGA; antisense; DNA, all phosphorothioate, methylation of C not given here; listed as Homo sapiens) [compound 12]”, the “% MCT4 Inhibition” value under setting [1] was 70.36%.

Consider “51 (dC*dC*dT*dT*dC*dC*dC*dT*dG*dA*dA*dG*dG*dT*dT*dC*dC*dT*dC*dC; antisense) [compound 51]”, for which, under setting [1], the “% MCT4 Inhibition” value worked out at 0.00%.

Regarding “24 (dG*dA*dC*dC*dT*dG*dT*dC*dC*dC*dG*dT*dA*dG*dA*dG*dC*dA*dT*dG; antisense; listed as Homo sapiens) [compound 24]”, under setting [1], the “% MCT4 Inhibition” value was determined as 47.24%.

“27 (dA*dC*dC*dT*dC*dC*dC*dC*dG*dT*dT*dT*dT*dT*dC*dT*dC*dA*dG*dG; antisense; listed as Homo sapiens) [compound 27]”: under setting [1], the “% MCT4 Inhibition” value was found to be 3.17%.

Regarding “31 (dG*dC*dC*dC*dA*dC*dC*dC*dA*dC*dC*dC*dT*dC*dC*dC*dA*dT*dT*dA; antisense; listed as Homo sapiens) [compound 31]”, the “% MCT4 Inhibition” value under setting [1] was -43.4%.

In the case of “10 (CATGCCGTAGGAGATGCCAA; antisense; DNA, all phosphorothioate, methylation of C not given here; listed as Homo sapiens) [compound 10]”, the “% MCT4 Inhibition” value under setting [1] is listed as 76.51%.

“28 (dT*dG*dT*dG*dA*dA*dC*dC*dA*dC*dC*dT*dC*dC*dC*dC*dG*dT*dT*dT; antisense; listed as Homo sapiens) [compound 28]”: the “% MCT4 Inhibition” value under setting [1] was 29.91%.

On to “38 (dG*dG*dC*dC*dA*dC*dC*dG*dC*dC*dT*dC*dC*dA*dT*dC*dA*dG*dC*dA; antisense; listed as Homo sapiens) [compound 38]”, for which the “% MCT4 Inhibition” value under setting [1] is recorded as 45.92%.

For “19 (dG*dC*dC*dA*dG*dC*dC*dC*dG*dT*dT*dG*dG*dC*dC*dA*dT*dG*dG*dG; antisense; listed as Homo sapiens) [compound 19]”, the “% MCT4 Inhibition” value under setting [1] worked out at 80.26%.

Regarding “3 (AAGGACGCAGCCACCATGCC; antisense; DNA, all phosphorothioate, methylation of C not given here; listed as Homo sapiens) [compound 3]”, the “% MCT4 Inhibition” value under setting [1] is given as 71.19%.

Turning to “9 (GGCTGGAAGTTGAGTGCCAA; antisense; DNA, all phosphorothioate, methylation of C not given here; listed as Homo sapiens) [compound 9]”, the “% MCT4 Inhibition” value under setting [1] was determined as 76.03%.
